Laboratory results taken from patent US11613547B2 (priority 2019, dated 2023).
“And” between values parts separate entries of the source, which are not always exact repeats. Identical values can stand only once. “Also recorded” adds a separate entry of the source.

What was measured:
330 non-olfactory GPCRs = experiment: PRESTO-Tango GPCRome β-arrestin recruitment screen; assay type: cell-based; conditions: 3 μM
Description: Assessment of off-target activity of MP1207 using PRESTO-Tango GPCR-ome To identify potential off-target activity of MP1207, the National Institutes of Mental Health Psychoactive Drug Screen Program were used. MP1207 was first tested for activity against 330 non-olfactory GPCRs using the PRESTO-Tango GPCRome screening β-arrestin recruitment assay at 3 μM MP1207. The activity at each receptor was measured in quadruplicate.
Screening of compounds was accomplished using previously described methods with several modifications (www.ncbi.nlm.nih.gov/pmc/articles/PMC4424118/). First, HTLA cells were plated in DMEM with 2% dialyzed FBS and 10 U/mL penicillin-streptomycin. Next, the cells were transfected using an in-plate PEI method (www.ncbi.nlm.nih.gov/pmc/articles/PMC4012321/). PRESTO-Tango receptor DNAs were resuspended in OptiMEM and hybridized with PEI prior to dilution and distribution into 384-well plates and subsequent addition to cells. After overnight incubation, drugs diluted in DMEM with 1% dialyzed FBS were added to cells without replacement of the medium. The remaining steps of the PRESTO-Tango protocol were followed as previously described.

[1] = biological target: T1, mouse delta opioid receptor (mDOR) (Mus musculus, UniProt P32300); experiment: BRET assay, G-protein activation, mDOR; assay type: cell-based
T1 construct: expressed in transfected cells; host or cells: HEK-293T, transient (PEI), with BRET sensor cDNAs
T1 sequence (P32300 whole entry): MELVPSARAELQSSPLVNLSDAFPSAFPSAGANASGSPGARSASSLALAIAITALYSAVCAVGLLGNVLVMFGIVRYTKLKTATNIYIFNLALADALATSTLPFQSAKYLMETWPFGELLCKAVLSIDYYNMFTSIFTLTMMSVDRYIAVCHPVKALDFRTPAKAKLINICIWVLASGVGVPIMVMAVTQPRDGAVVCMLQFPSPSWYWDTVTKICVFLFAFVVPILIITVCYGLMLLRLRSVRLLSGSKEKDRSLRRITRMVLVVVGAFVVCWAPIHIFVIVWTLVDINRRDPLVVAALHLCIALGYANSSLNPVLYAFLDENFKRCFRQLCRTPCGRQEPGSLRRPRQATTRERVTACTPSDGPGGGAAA

[2] = biological target: T2, mouse mu opioid receptor (mMOR) (Mus musculus, UniProt P42866); experiment: cell-based; assay type: cell-based
T2 construct: expressed in transfected cells; host or cells: HEK-293T, transient (PEI), with BRET sensor cDNAs
T2 sequence (P42866 whole entry): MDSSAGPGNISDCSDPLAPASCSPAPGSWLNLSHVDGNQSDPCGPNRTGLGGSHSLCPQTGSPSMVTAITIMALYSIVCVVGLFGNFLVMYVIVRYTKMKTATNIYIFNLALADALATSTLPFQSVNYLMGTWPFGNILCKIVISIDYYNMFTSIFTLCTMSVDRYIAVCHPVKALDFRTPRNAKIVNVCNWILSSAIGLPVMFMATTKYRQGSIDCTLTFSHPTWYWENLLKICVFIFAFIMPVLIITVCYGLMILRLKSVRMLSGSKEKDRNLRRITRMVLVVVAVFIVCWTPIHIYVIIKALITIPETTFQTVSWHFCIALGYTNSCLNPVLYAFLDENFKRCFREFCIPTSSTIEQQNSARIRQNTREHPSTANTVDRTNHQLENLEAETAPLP

C57/B6 mice = experiment: Locomotor effect (CLAMS); conditions: 30 or 100 nmol icv
hMOR [3] = biological target: T3, hMOR (Homo sapiens, UniProt P35372); experiment: cell-based; assay type: cell-based
T3 construct: expressed in transfected cells; host or cells: HEK 293T (ATCC CRL-11268), transient
T3 sequence (P35372 whole entry): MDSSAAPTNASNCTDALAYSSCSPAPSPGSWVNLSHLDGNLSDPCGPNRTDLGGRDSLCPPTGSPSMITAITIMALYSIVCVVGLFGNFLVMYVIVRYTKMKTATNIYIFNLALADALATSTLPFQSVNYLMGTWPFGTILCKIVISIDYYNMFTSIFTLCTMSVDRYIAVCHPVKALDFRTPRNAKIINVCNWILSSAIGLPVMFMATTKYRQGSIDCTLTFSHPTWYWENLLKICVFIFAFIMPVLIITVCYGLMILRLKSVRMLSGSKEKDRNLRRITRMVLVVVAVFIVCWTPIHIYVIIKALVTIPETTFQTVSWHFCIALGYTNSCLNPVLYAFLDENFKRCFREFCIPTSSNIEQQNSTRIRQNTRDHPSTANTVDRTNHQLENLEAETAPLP

mMOR = biological target: T4, mMOR (Mus musculus, UniProt P42866); experiment: [35S]GTPγS functional assay, mMOR; assay type: biochemical
T4 construct: expressed in transfected cells
T4 sequence (P42866 whole entry): as the sequence (P42866 whole entry) above

mDOR [4] = biological target: T5, mDOR (Mus musculus, UniProt P32300); experiment: [35S]GTPγS functional assay, mDOR; assay type: biochemical
T5 construct: expressed in transfected cells
T5 sequence (P32300 whole entry): as the sequence (P32300 whole entry) above

hDOR [5] = biological target: T6, hDOR (Homo sapiens, UniProt P41143); experiment: Tango β-arrestin recruitment assay, hDOR; assay type: cell-based; design: expressed in transfected cells; host or cells: HTLA cells expressing TEV fused-beta-Arrestin2
T6 sequence (P41143 whole entry, the tested form may be a part): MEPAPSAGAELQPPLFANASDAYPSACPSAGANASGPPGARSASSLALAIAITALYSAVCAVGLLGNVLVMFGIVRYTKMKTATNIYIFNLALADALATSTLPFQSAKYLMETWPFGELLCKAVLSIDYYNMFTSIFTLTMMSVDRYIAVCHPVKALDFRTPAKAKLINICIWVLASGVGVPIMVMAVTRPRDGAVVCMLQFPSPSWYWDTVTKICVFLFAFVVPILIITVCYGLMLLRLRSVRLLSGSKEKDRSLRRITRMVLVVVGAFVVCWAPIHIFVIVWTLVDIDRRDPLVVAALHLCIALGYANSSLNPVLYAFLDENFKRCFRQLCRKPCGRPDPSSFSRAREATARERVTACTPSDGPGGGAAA

[6] = biological target: T7, rat kappa opioid receptor (rKOR) (Rattus norvegicus, UniProt P34975); experiment: BRET assay, G-protein activation, rKOR; assay type: cell-based
T7 construct: expressed in transfected cells; host or cells: HEK-293T, transient (PEI), with BRET sensor cDNAs
T7 sequence (P34975 whole entry): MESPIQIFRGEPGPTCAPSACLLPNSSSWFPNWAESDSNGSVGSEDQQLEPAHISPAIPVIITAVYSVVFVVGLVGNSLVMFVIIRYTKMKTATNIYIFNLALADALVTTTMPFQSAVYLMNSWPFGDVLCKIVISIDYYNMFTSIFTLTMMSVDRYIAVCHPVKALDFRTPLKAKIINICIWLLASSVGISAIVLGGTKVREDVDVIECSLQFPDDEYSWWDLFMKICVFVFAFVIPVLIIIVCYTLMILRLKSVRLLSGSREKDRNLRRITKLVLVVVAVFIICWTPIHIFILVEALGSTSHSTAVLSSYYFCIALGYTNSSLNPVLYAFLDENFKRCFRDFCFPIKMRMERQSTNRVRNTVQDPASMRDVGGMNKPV

hDOR [7] = biological target: T6, hDOR; experiment: cAMP inhibition assay, hDOR; assay type: cell-based; design: expressed in transfected cells
mKOR = biological target: T8, mKOR (Mus musculus, UniProt P33534); experiment: [35S]GTPγS functional assay, mKOR; assay type: biochemical
T8 construct: expressed in transfected cells
T8 sequence (P33534 whole entry): as the sequence (P34975 whole entry) above, with E11D, A17S, P51S, V308A counted along it

Y312W-hKOR [8] = biological target: T9, Y312W-hKOR (Homo sapiens, UniProt P41145, Y312W); experiment: Tango-arrestin recruitment assay, Y312W-hKOR mutant; assay type: cell-based; design: expressed in transfected cells; conditions: Tango, compared with wild-type KOR
T9 sequence (P41145 whole entry Y312W): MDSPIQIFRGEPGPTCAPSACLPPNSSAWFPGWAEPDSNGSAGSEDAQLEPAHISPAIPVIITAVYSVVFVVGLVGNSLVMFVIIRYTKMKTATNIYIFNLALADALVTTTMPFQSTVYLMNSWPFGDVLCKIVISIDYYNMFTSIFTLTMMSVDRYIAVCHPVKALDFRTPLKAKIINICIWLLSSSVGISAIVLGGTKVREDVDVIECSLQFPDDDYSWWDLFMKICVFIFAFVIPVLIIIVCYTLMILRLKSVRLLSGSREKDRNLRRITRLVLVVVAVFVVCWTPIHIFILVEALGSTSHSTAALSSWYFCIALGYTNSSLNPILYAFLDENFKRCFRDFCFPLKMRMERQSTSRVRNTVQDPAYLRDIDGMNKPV

Y312W-hKOR [9] = biological target: T9, Y312W-hKOR; experiment: cAMP inhibition assay, Y312W-hKOR mutant; assay type: cell-based; design: expressed in transfected cells; host or cells: HEK 293T (inferred from the general cAMP method)
C57BL/6J mice [10] = experiment: Conditioned place preference and aversion; conditions: MP1207 100 nmol icv, morphine 10 mg/kg IP, U50,488h 30 mg/kg IP
hMOR [11] = biological target: T3, hMOR; experiment: Tango β-arrestin recruitment assay, hMOR; assay type: cell-based; conditions: Tango
hKOR [12] = biological target: T10, hKOR (Homo sapiens, UniProt P41145); experiment: cAMP inhibition assay (GloSensor, HEK 293T), hKOR; assay type: cell-based
T10 construct: expressed in transfected cells; host or cells: HEK 293T (ATCC CRL-11268), transient
T10 sequence (P41145 whole entry): as the sequence (P41145 whole entry Y312W) above, with W312Y counted along it

[13] = biological target: T2, mouse mu opioid receptor (mMOR); experiment: cell-based; assay type: cell-based; remark: listed apart in the source
mDOR [14] = biological target: T5, mDOR; experiment: Radioligand competition binding ([125I]IBNtxA), CHO membranes, mDOR
[15] = test system: MOR KO, KOR KO, DOR KO mice; experiment: Tail-withdrawal antinociception in opioid receptor knock out mice; assay type: in vivo, mouse; conditions: 30 nmol icv, relative to WT
Description: (§1) Tail-withdrawal assay The 55° C. warm-water tail-withdrawal assay was conducted in mice as a measure of acute thermal antinociception as described previously (Reilley et al., 2010). Briefly, each mouse was tested for baseline tail-withdrawal latency prior to drug administration. Following drug administration, the latency for each mouse to withdraw the tail was measured every 10 minutes until latency returned to the baseline value. A maximum response time of 15 seconds was utilized to prevent tissue damage. […] Data are reported as percent antinociception, calculated by the equation: % antinociception=100×[(test latency−baseline latency)/(15−baseline latency)]. This was utilized to account for innate variability between mice. Compounds were administered either, […] (IP) or intracerebroventricular (icv) and the analgesic action of compounds was assessed at the peak effect as described previously (Haley and McCormick, 1957). In brief, mice were anesthetized using isoflurane. A small incision was made, and the drug (2 μl/mouse) was injected (using a 10 μL Hamilton syringe fitted to a 27-gauge needle) into the right lateral ventricle at the following coordinates: 2 mm caudal to bregma, 2 mm lateral to sagittal suture, and 2 mm in depth. Mice were tested for analgesia at the peak effect post injection.

hKOR [16] = biological target: T10, hKOR; experiment: Tango β-arrestin recruitment assay, hKOR; assay type: cell-based
C57BL/6J mice [17] = experiment: 55° C. warm-water tail-withdrawal assay; assay type: in vivo, mouse; conditions: icv, 55° C. tail withdrawal
Description: as §1

[18] = biological target: T7, rat kappa opioid receptor (rKOR); experiment: BRET assay, arrestin recruitment, rKOR; assay type: cell-based; conditions: BRET
C57 mice = experiment: Respiratory rate (CLAMS)

## NCc1cccc(C(=O)NC2CCC3C4Cc5ccc(O)c6c5C3(CCN4CC3CC3)C2O6)c1 [MP1207, 3-(Aminomethyl)-N-((7R,726S)-3-(cyclopropylmethyl)-9-hydroxy-2,3,4,4a,5,6,7,7a-octahydro-1H-4,12-methanobenzofuro[3,2-e]isoquinolin-7-yl)benzamide]
330 non-olfactory GPCRs; agonism in arrestin recruitment TANGO assay
  selectivity for opioid receptors in GPCRome screen: reasonable selectivity for opioid receptors over 330 GPCRs; also recorded: selectivity for opioid receptors over non-opioid targets
330 non-olfactory GPCRs; predominantly at KOR and DOR, much less at MOR
  increase in signal over basal at opioid receptors: 2 fold over basal
[1]; mDOR, BRET
  EC50: 116 nM
[1]; read-out: G-Protein activation Emax % ± SEM
  Emax: 52 ± 2.3%
[2]
  EC50: 3.61 nM
[2]; read-out: Gi Emax mMOR
  Emax: 42 ± 2.6%
C57/B6 mice
  locomotor effect: stimulated locomotor activity; also recorded: increase in the forward locomotory effect
hMOR [3]
  EC50: 0.0339 nM
hMOR [3]; HEK-293T, read-out: Gi Emax hMOR
  Emax: 33 ± 1.4%
mMOR
  Emax: 41 ± 1%
mDOR [4]
  Emax: 10 to 15%
mDOR [4]; [35S]GTPγS
  efficacy at mDOR: only weak efficacy
hDOR [5]; hDOR, Tango
  EC50: 64.1 nM
hDOR [5]; read-out: Arrestin recruitment Emax % ± SEM
  Emax: 34 ± 3.7%
[6]; BRET, read-out: Gi EC50 rKOR
  EC50: 1.13 nM
[6]; read-out: Gi Emax rKOR
  Emax: 32 ± 2.3%
hDOR [7]; hDOR
  EC50: 11.4 nM
hDOR [7]; read-out: cAMP inhibition Emax % ± SEM
  Emax: 38 ± 2%
mKOR
  Emax: 39.3 ± 1.3%
Y312W-hKOR [8]
  arrestin recruitment at Y312W-hKOR: further reduction of arrestin recruitment; also recorded: reduced arrestin measurement
Y312W-hKOR [9]; cAMP inhibition, read-out: Gi EC50 Y312W-hKOR
  EC50: 0.16 nM
Y312W-hKOR [9]; read-out: Gi Emax Y312W-hKOR
  Emax: 95 ± 1.8%
C57BL/6J mice [10]
  conditioned place preference or aversion (CPP/CPA): failed to show either rewarding or aversive behavior; also recorded: did not display GPP seen with morphine or CPA behavior seen with U50, 488h
hMOR [11]
  arrestin recruitment at hMOR: no recruitment of arrestin was seen; also recorded: no arrestin recruitment was observed
hKOR [12]; HEK-293T, read-out: Gi Emax hKOR
  Emax: 90 ± 1.7%
hKOR [12]; cAMP inhibition vs Tango, against U50,488H as control
  Bias factor toward G protein, hKOR: 8
[13]
  arrestin recruitment at mMOR: no recruitment of βarrestin-2; also recorded: no arrestin recruitment was observed
mDOR [14]
  selectivity of MOR and KOR over DOR in the binding assays: > 40 fold
[15]
  antinociception in DOR KO mice: remained intact
  antinociception in KOR KO mice: significantly attenuated
  antinociception in MOR KO mice: significantly attenuated
hKOR [16]
  Emax: 37 ± 2%
hKOR [16]; Tango, WT-hKOR
  EC50: 3.97 nM
C57BL/6J mice [17]
  antinociceptive ED50 (95% CI): 6.1 (4.1-8.9) nmol and 6.1 nmol
[18]
  arrestin recruitment at rKOR: no recruitment of βarrestin-2; also recorded: no arrestin recruitment was observed
C57 mice; 30 nmol icv
  respiratory rate: stimulated respiration; also recorded: an increase in the respiratory rate
C57 mice; 100 nmol icv
  respiratory rate: still stimulated respiration; also recorded: slight right shift of effect
